Activity calls are given as the source filed them.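 The calls were made as follows: active = fitted curve reaches a 40% rise in fluorescent cells at or below the top valid dose; inactive = opposite-direction effect, or the rest.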
Assay: compound fluorescence in GFP channel, mTEFS cells – imaging, mTEFS fibroblasts, cherry-pick, artefact control for X-chromosome reactivation project, dose response (AID 743396);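 also: raw share of Hoechst-counted cells scored GFP positive without control normalization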
Details: mTEFS fibroblasts autofluorescence, GFP-channel imaging, 3 days; at 19.5 µM (top of the series)

| SMILES | % fluorescent cells increase |
| --- | --- |
| C=CCn1c(O)c(C(C)=NCc2ccc3c(c2)OCO3)c(=O)[nH]c1=O | 0.135% (inactive) |
| O=c1[nH]c(=O)n(CCC2=CCCCC2)c(O)c1/C=N/Nc1ccccc1 | 0% (inactive) |

Same assay, conditions: mTEFS fibroblasts autofluorescence, GFP-channel imaging, 3 days; at 19.5 µM (top of the series); cells pretreated with 5-aza-dC

| SMILES | % fluorescent cells increase |
| --- | --- |
| CC(=O)OCCNc1cc(Sc2nc3ccccc3[nH]2)c2nonc2c1[N+](=O)[O-] | 9.92% (inactive) |
| O=C1c2ccc3c4c(ccc(c24)C(=O)N1c1cccc(O)c1)C(=O)N(c1cccc(O)c1)C3=O | -0.003% (inactive) |
| C=CCNC(=O)N[C@@H](Cc1ccccc1)C(=O)OC | 1.04% (inactive) |
| COc1cccc(-c2ccc(C3[C@@H]4CN(C(=O)C5CCCCC5)C[C@H]3N4)cc2)c1 (stereo partly specified) | 0% (inactive) |
| COc1ccc2c3c(n(C)c2c1)[C@H](CO)N(Cc1ccccc1F)CC31CCN(CC2CC2)CC1 | -0.126% (inactive) |
| Cc1cccc2sc(N(CCCN(C)C)C(=O)CN3C(=O)c4ccccc4C3=O)nc12 | 0% (inactive) |
| COc1cc(/C=C2\SC(=S)N(N3CCOCC3)C2=O)cc(OC)c1OC | -0.007% (inactive) |
| Cc1cc(-c2nc(C)c(-c3nnc(SCC(=O)Nc4ccc(Cl)cc4)n3C)s2)no1 | 0% (inactive) |
| COc1ccc2c3c(n(C)c2c1)[C@@H](CO)N(C(=O)NC(C)C)CC31CN(C(C)=O)C1 | -0.138% (inactive) |
| CCNC(=O)C[C@@H]1CC[C@H]2[C@@H](COC[C@@H](O)CN2C(=O)C2CCCC2)O1 | 0.746% (inactive) |
| COc1ccccc1-c1ccc(/C=N/O)o1 | 0% (inactive) |
| CCOC(=O)c1c(C)[nH]c(N=Nc2ccc(OC)cc2)c1C | 0.028% (inactive) |
| CC(=O)c1ccc(C(=O)Nc2sc3c(c2C(N)=O)CCN(Cc2ccccc2)C3)cc1 | 8.52% (inactive) |
| Cc1ccc(Cn2cc(/C=N/Nc3ccc([N+](=O)[O-])cn3)c3ccccc32)cc1 | 0.941% (inactive) |
| COC(=O)c1cnn(-c2ccccc2)c1N | 0.008% (inactive) |
| C/C(=N\NC(=O)c1ccccc1Cl)c1ccccn1 | 0% (inactive) |
| Cc1ccc(S(=O)(=O)Nc2cccc3c2O[C@H](CN(C)C(=O)Nc2cccc4ccccc24)[C@H](C)CN([C@H](C)CO)C3=O)cc1 | 0.048% (inactive) |
| C#Cc1cc(N2CCN(C(=O)c3ccoc3)CC2)n2nc(-c3cccc(Cl)c3)cc2n1 | 7.21% (inactive) |
| CO[C@@H]1CN(C)C(=O)c2cc(NS(C)(=O)=O)ccc2OC[C@H](C)N(C(=O)C2CCCC2)C[C@H]1C | 0.308% (inactive) |
| CCOCCCNC(=O)C(c1ccc(C)cc1)N(Cc1cccs1)C(=O)c1ccccn1 (stereo unspecified) | 0% (inactive) |
| CNc1ccc([N+](=O)[O-])cc1C(=O)O | -0.007% (inactive) |
| O=C(NCCO)/C(=C/c1ccco1)NC(=O)c1ccco1 | 0.007% (inactive) |
| CC(C)N1C(=O)C(=O)N(CC(=O)N2CCc3ccccc32)C1=O | 0.029% (inactive) |
| CC(=O)Nc1ccc(NS(=O)(=O)c2ccc3c(c2)oc(=O)n3C)cc1 | 0.01% (inactive) |
| COC(=O)c1ccc(NC(=O)c2nc(S(=O)(=O)Cc3cccc(C)c3)ncc2Cl)cc1 | -0.007% (inactive) |
| CC(=O)Nc1ccc(N2Cc3ccccc3C2)cc1 | 0.093% (inactive) |

| SMILES | % fluorescent cells increase |
| --- | --- |
| COc1ccccc1NC(=O)N[C@H]1C=C[C@@H](CC(=O)N[C@@H](C)c2ccccc2)O[C@@H]1CO | 0.342% (inactive) |
| CCOC(=O)c1ccccc1NC(=O)COC(=O)C1CCN(S(=O)(=O)c2ccccc2C(=O)OC)CC1 | 0% (inactive) |
| O=C(Nc1ccccc1)N1C[C@@H]2[C@H](c3ccccc31)[C@H](CO)N2C(=O)c1ccccc1F | 0.041% (inactive) |
| O=C(NCc1ccccc1)c1ccccc1Br | 3.38% (inactive) |
| O=C1N(c2ccccc2)C[C@@H]2C[C@@H](c3cc4ccccc4o3)N3CCC[C@@]123 | -0.007% (inactive) |
| C[C@@H]1CN([C@@H](C)CO)C(=O)c2cc(NS(=O)(=O)c3cn(C)cn3)ccc2O[C@@H](C)CCCCO[C@H]1CN(C)C(=O)c1ccccc1 | 0% (inactive) |
| CC1Oc2ccccc2C=C1/C=N\NC(=O)c1cccnc1 (stereo unspecified) | 0% (inactive) |
| COc1ccc(S(=O)(=O)Nc2ccc3c(c2)C(=O)N([C@@H](C)CO)C[C@H](C)[C@H](CN(C)C(=O)CCCN(C)C)OCCCC[C@H](C)O3)cc1 | 0.13% (inactive) |
| O=C(CCl)N=c1sccn1Cc1ccc(Cl)cc1Cl | 0% (inactive) |
| Cc1nn(-c2ccccc2)c(N)c1N=O | 0% (inactive) |
| Cn1c(=N)n(CC(=O)c2ccccc2)c2ccccc21 | 0% (inactive) |
| COc1ccc(/C=C2\CCc3ccccc3C2=O)cc1CN1CCOCC1 | -0.007% (inactive) |
| Cc1nnc(-c2ccc(N3CCCCCC3)c([N+](=O)[O-])c2)o1 | 0% (inactive) |
| NNC(=O)/C(=C\c1ccc(Br)cc1)NC(=O)c1cccs1 | 0.233% (inactive) |
| CCC(=O)N1CC(=O)N2[C@@H](CO)[C@@H](c3ccc(-c4ccccc4F)cc3)[C@@H]2C1 | 0% (inactive) |
| C[C@@H]1CN([C@H](C)CO)C(=O)c2cc(NS(=O)(=O)c3ccccc3)ccc2O[C@@H](C)CCCCO[C@@H]1CN(C)Cc1ccc2c(c1)OCO2 | 3.87% (inactive) |
| O=C1CSC(c2cccnc2)N1Cc1ccc(Cl)cc1Cl (stereo unspecified) | 0% (inactive) |
| Cc1[nH]c2ccc(Br)cc2c(=O)c1CN1CCCCCC1 | 0% (inactive) |
| CCOC(=O)c1sc2nc(CSc3ccccc3)[nH]c(=O)c2c1C | 0.048% (inactive) |
| CCOC(=O)c1sc(Nc2ccc(Br)cc2)nc1C | 1.37% (inactive) |
| CC(C)c1ccc(CN2CCN(C(=O)CSc3nnnn3C3CC3)CC2)cc1 | 0.042% (inactive) |
| CCOC(=O)Nc1ccc2nc(-c3cscn3)[nH]c2c1 | 0.274% (inactive) |
| NS(=O)(=O)c1cccc(NC(=O)COC(=O)Cc2ccc(S(=O)(=O)N3CCOCC3)s2)c1 | 0% (inactive) |
| COCCCn1c(C)cc(C(=O)COC(=O)CCc2nc3ccccc3c(=O)[nH]2)c1C | 3.52% (inactive) |
| CCCOc1ccc(C(=O)Nc2ccc(CN3CCOCC3)cc2)cc1 | 0% (inactive) |
| C[C@H]1CN([C@@H](C)CO)C(=O)c2cc(NC(=O)CCCCCC(=O)Nc3ccccc3N)ccc2O[C@H]1CN(C)C(=O)Nc1ccccc1 | 0.017% (inactive) |

| SMILES | % fluorescent cells increase |
| --- | --- |
| O=C(NC1=C(NC2CCS(=O)(=O)C2)C(=O)c2ccccc2C1=O)c1ccccc1 (stereo unspecified) | 0% (inactive) |
| Cc1cccc(CS(=O)(=O)Cc2ccc(C(=O)NCc3cccs3)o2)c1 | 0.029% (inactive) |
| Cc1ccc(S(=O)(=O)Nc2ccc3c(c2)C(=O)N([C@H](C)CO)C[C@@H](C)[C@@H](CN(C)Cc2ccc(Cl)c(Cl)c2)OCCCC[C@H](C)O3)cc1 | 8.98% (inactive) |
| Cc1ccnc(NS(=O)(=O)c2ccc3c(c2)CCO3)c1 | 0.175% (inactive) |
| O=C(O)c1ccc(COc2ccccc2C=C2C(=O)c3ccccc3C2=O)cc1 | -0.004% (inactive) |
| C[C@H](NC(=O)C[C@@H]1CC[C@H](NC(=O)Cc2ccccn2)[C@@H](CO)O1)c1ccccc1 | 0.048% (inactive) |
| Cc1ccc(S(=O)(=O)N(C)C[C@H]2Oc3ccc(NC(=O)Nc4ccccc4)cc3CC(=O)N([C@H](C)CO)C[C@@H]2C)cc1 | 0% (inactive) |
| COc1ccc(NC(=O)COc2ccc(C)c(C)c2)cc1S(=O)(=O)N1CCCCC1 | 0.026% (inactive) |
| Cc1cccc(OCC(=O)N(C)c2c(N)n(Cc3ccccc3)c(=O)[nH]c2=O)c1C | 0.02% (inactive) |
| C[C@@H]1COc2cccc(NCCO)c2S(=O)(=O)N1 | 0% (inactive) |
| Cc1ccc(C)c(OCCC(=O)Nc2cc(S(=O)(=O)N3CCCCC3)ccc2C)c1 | 13% (inactive) |
| C[C@H]1CCCCO[C@H](CN(C)S(=O)(=O)c2ccc(Cl)cc2)[C@@H](C)CN([C@@H](C)CO)C(=O)c2cc(NC(=O)Nc3ccccc3)ccc2O1 | 1.86% (inactive) |
| Cc1ccc(Nc2nc(N)nc(COC(=O)C3=COCCO3)n2)cc1 | -0.007% (inactive) |
| CCC(=O)OCCNc1cc(Sc2nc3ccccc3[nH]2)c2nonc2c1[N+](=O)[O-] | -0.003% (inactive) |
| COc1cc(NS(=O)(=O)c2ccc3ccccc3c2)c2ncccc2c1 | 0% (inactive) |
| O=c1[nH]nc(SCCS(=O)(=O)c2ccc(F)cc2)n1-c1ccccc1C(F)(F)F | -0.004% (inactive) |
| CCOC(=O)[C@]12CCC=C1N(Cc1ccccc1)C(=O)[C@H](CC(=O)N1CCSCC1)C2 | 0.038% (inactive) |
| O=C(NNC(=O)c1cc2ccccc2o1)c1ccc(Cl)cc1 | 0.148% (inactive) |
| CC(=O)Oc1ccc2c(=O)c(-c3ccccc3)coc2c1 | 0.02% (inactive) |
| CCN1CCN(c2cc(C)c3cc(NC(=O)c4cccs4)ccc3n2)CC1 | 0.257% (inactive) |
| Cc1ccc(S(=O)(=O)N2CCOCC2)cc1C(=O)OCC(=O)NC1CCS(=O)(=O)C1 (stereo unspecified) | 0.086% (inactive) |
| CCOc1ccc(C(=O)c2cc([N+](=O)[O-])ccc2N2CCOCC2)cc1 | 0% (inactive) |
| COc1cc(/C=C/c2ccc3cccc(O)c3n2)ccc1O | 0% (inactive) |
| O=C(c1ccccc1Cl)N1CCSCCS1(=O)=O | 0% (inactive) |
| N=c1ccn2c(n1)OC1C(O)C(CO)OC12 (stereo unspecified) | -0.006% (inactive) |
| CN(c1ccccc1)S(=O)(=O)c1ccc(C(=O)NCC(c2ccco2)N2CCCCC2)cc1 (stereo unspecified) | 6.89% (inactive) |

Same assay, conditions: mTEFS fibroblasts autofluorescence, GFP-channel imaging, 3 days; at 21 µM (top of the series); cells pretreated with 5-aza-dC

| SMILES | % fluorescent cells increase |
| --- | --- |
| CO[C@H](CN(C)C(=O)Nc1ccc(C(F)(F)F)cc1)[C@@H](C)CN(Cc1ccccc1Cl)[C@@H](C)CO | 0% (inactive) |

— PubChem BioAssay AID743396 (Broad Institute, 2014)
